Like-named read-outs stand apart in the source and are kept apart here.
What was measured:
SARS-CoV-2 [1] = assay type: cell-based; details: CaCo-2 cells infected SARS-CoV-2 (MOI 0.1); 0.098-100 μM, 24 h
SARS-CoV-2 [2] = assay type: cell-based; details: Caco-2, Vero E6, Calu-3; MOI 0.01; 100, 75, 50 μM; 24 h
SARS-CoV-2 (FI) [3] = assay type: cell-based
Calu-3 cells = assay: Cytotoxicity evaluation in Calu-3 cells; assay type: cell-based, Homo sapiens; details: Calu-3, 72 h treatment
Method: In a next step, Calu-3 cells were incubated with increasing amounts of ATR-002 over 24, 48 or 72 hours. Specifically, Calu-3 cells were infected with SARS-CoV-2 (FI) using a MOI of 0.01. 1 h.p.i. cells were treated with ATR-002. Mock, SARS-CoV-2 and DMSO served as controls. […] Untreated (SARS-CoV-2) and DMSO (0.1%) treated cells served as negative controls. […] DMSO was used as reference. […] Data in combination with (C) was used to calculate the CC50 value and the selectivity index (SI).

[4] = system: cytokine & chemokine gene expression in lungs; assay: Acute lung injury (ALI) mouse model, LPS induced cytokine and chemokine gene expression; assay type: in vivo; details: LPS 5 mg/kg i.p.; 25 mg/kg i.p. 1 h post stimulation; 6 h post treatment
[5] = system: IL-6, IL-8, MCP-1, IP-10 and CCL5 mRNA; assay: Pro-inflammatory cytokine mRNA in SARS-CoV-2 infected Calu-3 cells (real-time PCR); assay type: cell-based, Homo sapiens; details: Calu-3, SARS-CoV-2 (FI) MOI 0.01, increasing amounts
LPS induced PMBC cells = assay: LPS induced cytokine expression in PBMC; assay type: cell-based, human; details: 10 μg/ml
Text: In order to check what concentration of ATR-002 would be necessary for cytokine reduction, the amounts of IP10, TNF-alpha and MCP-1 expression was studied in LPS induced PMBC cells after ATR-002 treatment.

[6] = system: peripheral blood mononuclear cells (PBMC's); assay: T-cell Inflammation Inhibition Assay (Anti-CD3 Stimulation); assay type: cell-based, human; details: ATR-002 100, 50, 25 μM, Dexamethasone 100 nM, 24 h
[7] = system: peripheral blood mononuclear cells (PBMC's); assay: T-Cell Inflammation Inhibition Assay (ConA Stimulation); assay type: cell-based, human; details: ATR-002 100, 50, 25 μM, Dexamethasone 100 nM, 24 h
[8] = system: peripheral blood mononuclear cells (PBMC's); assay: T-Cell Inflammation Inhibition Assay (PHA Stimulation); assay type: cell-based, human; details: ATR-002 100, 50, 25 μM, Dexamethasone 100 nM, 24 h
[9] = human, in vivo
Method: Specifically, as described previously, in Phase I clinical studies PD-0184264 was administered with a starting dose of 100 mg and up to three escalation steps in seven arms, following a single ascending dose/multiple ascending dose (SAD/MAD) regime. Administration scheme was one dose PD-0184264, escalating 100 mg to 900 mg (SAD), followed by seven doses PD-0184264, escalating 100 mg to 600 mg QD over seven days (MAD).

SARS-CoV-2 (FI) [10] = assay type: cell-based; remark: listed apart in the source
[11] = system: VSV pseudotype virus carrying the SARS-CoV-2 Spike protein; assay type: cell-based
SARS-CoV-2 [12] = assay: SARS-CoV-2 Syrian hamster infection model; details: for reduction of progeny virus in throat swabs (TCID50): 100 mg/kg then 75 mg/kg once daily oral; for reduction of progeny virus in throat swabs (TCID50) / reduction of viral load in throat swabs (PCR): day 3 p.i.; for tolerability, weight loss, adverse effects: compared to vehicle
[13] = treatment start 4 hours p.i., day 4 p.i.
[14] = treatment start 24 hours p.i., day 4 p.i.

Structure (SMILES): O=C(O)c1ccc(F)c(F)c1Nc1ccc(I)cc1Cl [ATR-002, 2-(2-chloro-4-iodophenylamino)-N-3,4-difluoro benzoic acid]
- inhibition of SARS-CoV-2 (virus titer) (SARS-CoV-2 [1]): seen at concentrations of 50 and 100 μM
- inhibition of nucleocapsid protein (viral marker) (SARS-CoV-2 [1]): seen at concentrations of 50 and 100 μM
- virus titer via RT-qPCR, effect across cell types (SARS-CoV-2 [2]): effect seen on all cell types was comparable
- duration of the effect on progeny viral particles (SARS-CoV-2 (FI) [3]; Calu-3, MOI 0.01, 10-150 μM): maintained over the total infection time of 72 hours
- production of progeny viral particles (SARS-CoV-2 (FI) [3]; Calu-3, MOI 0.01, 10-150 μM, 24, 48, 72 h): concentration dependent decrease
- cell damage of infected cells (light microscopy) (SARS-CoV-2 (FI) [3]; Calu-3 infected with SARS-CoV-2): did not show the characteristic cell damage
- cytotoxicity at antiviral concentrations (Calu-3 cells): non-toxic concentration range
- IL-1beta gene expression in lung [4]: decrease
- IL-8 gene expression in lung [4]: decrease
- IP-10 gene expression in lung [4]: decrease
- MCP-1 gene expression in lung [4]: decrease
- MIP-1beta gene expression in lung [4]: decrease
- TNF-alpha gene expression in lung [4]: decrease
- expression of pro-inflammatory cytokines (IL-6, IL-8, MCP-1, IP-10, CCL5 mRNA) [5]: reduce the expression of pro-inflammatory cytokines
- IP10 expression (LPS induced PMBC cells; LPS induced PBMC): reduced
- TNF-alpha expression (LPS induced PMBC cells; LPS induced PBMC): reduced
- inhibition at 10 µg/mL (LPS induced PMBC cells; PBMC, human PBMCs, read-out: inhibition of LPS induced MCP-1): > 90%
- inhibition of cytokine/chemokine stimulation (summary) [6]: significant, dose dependent inhibition
- inhibition of cytokine/chemokine stimulation (summary) [7]: significant, dose dependent inhibition
- inhibition of cytokine/chemokine stimulation (summary) [8]: significant, dose dependent inhibition
- pharmacokinetic profile [9]: supports the intended once-daily regime
- pharmacokinetics exposure, blood levels [9]: maintenance of clinically relevant blood levels
- safety of each dose cohort (Safety Review Committee) [9]: considered to be safe
- production of progeny viral particles (SARS-CoV-2 (FI) [10]; A549-ACE2/TMPRSS2, MOI 0.001, 100 μM): reduced the production of progeny viral particles
- production of progeny viral particles (SARS-CoV-2 (FI) [10]; A549-ACE2/TMPRSS2, MOI 0.01, 100 μM): did not affect the production of progeny viral particles
- production of progeny viral particles (SARS-CoV-2 (FI) [10]; Calu-3, MOI 0.001, 100 μM): reduced the production of progeny viral particles
- internalization of the VSV pseudotype virus (GFP positive cells) [11]: reduction in the internalization
- reduction of progeny virus in throat swabs (TCID50) (SARS-CoV-2 [12]; treatment start 4 hours p.i.): 1.1 log 10
- tolerability, weight loss, adverse effects (SARS-CoV-2 [12]; treatment start 4 hours p.i.): well tolerated without significant weight loss
- reduction of viral load in throat swabs (PCR) (SARS-CoV-2 [12]; treatment start 4 hours p.i.): 1.1 log 10
- affected lung tissue (lung lesions, estimated percentage) (SARS-CoV-2 [12]; [13]): significantly reduced affected lung tissue
- reduction in infectious virus titers (TCID50/g tissue) in the nasal turbinates (SARS-CoV-2 [12]; [13]): 1.3 log 10
- reduction of viral load in the nasal turbinates (PCR) (SARS-CoV-2 [12]; [13]): 1.1 log 10
- reduction of progeny virus in throat swabs (TCID50) (SARS-CoV-2 [12]; treatment start 24 hours p.i.): 1.3 log 10
- tolerability, weight loss, adverse effects (SARS-CoV-2 [12]; treatment start 24 hours p.i.): well tolerated without significant weight loss
- reduction of viral load in throat swabs (PCR) (SARS-CoV-2 [12]; treatment start 24 hours p.i.): 1.2 log 10
- affected lung tissue (lung lesions, estimated percentage) (SARS-CoV-2 [12]; [14]): significantly reduced affected lung tissue
- infectious virus titers in the nasal turbinates (SARS-CoV-2 [12]; [14]): not the treatment started 24 hours p.i., significantly reduced infectious virus titers
